Like-named read-outs stand apart in the source and are kept apart here.
Assays:
[1] = molecular target: T1, rabbit reticulocyte 15-LO (Oryctolagus cuniculus, UniProt P12530); assay: Rabbit Reticulocyte 15-LO Assay (h15LO); assay type: biochemical; conditions: for IC50: 2U rabbit reticulocyte 15-LO, 174 μM linoleic acid, 15 minutes at 4° C.
T1 construct: Fifteen-lipoxygenase was obtained from phenylhydrazine-treated rabbits and purified per the method of Rapoport; from tissue; host or cells: reticulocytes of phenylhydrazine-treated rabbits
T1 sequence (P12530 1-663): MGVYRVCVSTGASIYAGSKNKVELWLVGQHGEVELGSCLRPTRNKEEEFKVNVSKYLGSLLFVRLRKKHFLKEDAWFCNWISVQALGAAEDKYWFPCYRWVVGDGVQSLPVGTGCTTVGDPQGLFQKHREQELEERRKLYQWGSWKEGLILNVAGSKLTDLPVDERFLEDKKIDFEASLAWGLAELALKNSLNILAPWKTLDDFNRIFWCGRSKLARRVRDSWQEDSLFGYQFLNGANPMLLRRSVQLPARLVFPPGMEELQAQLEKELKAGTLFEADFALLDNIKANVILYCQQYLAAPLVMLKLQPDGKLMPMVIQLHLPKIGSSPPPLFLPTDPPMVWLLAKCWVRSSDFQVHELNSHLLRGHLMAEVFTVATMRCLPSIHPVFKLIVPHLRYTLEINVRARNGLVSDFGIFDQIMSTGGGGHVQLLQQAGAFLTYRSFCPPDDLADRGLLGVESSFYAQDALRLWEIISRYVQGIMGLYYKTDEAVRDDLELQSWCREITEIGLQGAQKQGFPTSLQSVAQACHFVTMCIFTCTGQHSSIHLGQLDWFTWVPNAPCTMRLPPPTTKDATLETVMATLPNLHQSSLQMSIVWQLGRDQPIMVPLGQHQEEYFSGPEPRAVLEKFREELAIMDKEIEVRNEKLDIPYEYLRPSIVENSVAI
In short: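 Linoleic acid oxidation to 13-HPODE measured at 4° C. over 15 minutes, using 174 μM substrate and 2U enzyme purified from phenylhydrazine-treated rabbits in PBS/0.2% Na cholate. Product peak areas calibrated with authentic 13-HODE; inhibition expressed versus maximal reaction.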

[2] = 0.25 h, Table 2, read-out: h15LO % @ 10 μM

## O=C(Nc1ccc(F)cc1)c1ccc(OC(F)(F)F)c(NC(=S)Nc2cccc(C(F)(F)F)c2)c1 [Example 164]
other
  melting point: 153 to 154 °C
[1]; Table 2
  IC50: 1590 nM

## COc1ccc(C(=O)Nc2ccc(C)cc2)cc1NC(=S)Nc1cc(Cl)cc(Cl)c1 [Example 94, 3-[3-(3,5-Dichlorophenyl)-thioureido]-4-methoxy-N-p-tolyl-benzamide]
other
  melting point: 178 to 180 °C
[1]; Table 2
  IC50: 42 nM

## COc1ccc(C(=O)Nc2ccccc2)cc1NC(=S)Nc1ccc(Cl)c([N+](=O)[O-])c1 [Example 77, 3-[3-(4-Chloro-3-nitrophenyl)-thioureido]-4-methoxy-N-phenyl-benzamide]
other
  melting point: 174 to 175 °C
[1]; Table 2
  IC50: 11 nM

## COc1ccc(C(=O)Nc2ccccc2)cc1NS(=O)(=O)c1cc(Cl)cc(Cl)c1 [Example 118, 3-(3,5-Dichloro-benzenesulfonylamino)-4-methoxy-N-phenyl-benzamide]
other
  melting point: 222 to 228 °C
[1]; Table 2
  IC50: 49 nM

## COc1ccc(C(=O)Nc2ccccc2)cc1NC(=S)Nc1ccc([N+](=O)[O-])cc1 [Example 88, 4-Methoxy-3-[3-(4-nitrophenyl)-thioureido]-N-phenyl-benzamide]
other
  melting point: 183 to 184 °C
[1]; Table 2
  IC50: 33 nM

## COc1ccc(C(=O)Nc2ccccc2)cc1Oc1ccccc1 [Example 54, 3-Phenoxy-4-methoxy-N-phenyl-benzamide]
other
  melting point: 200 to 201 °C
[1]; [2]
  inhibition at 10 µM: 60%

## COc1ccc(NC(=O)c2ccccc2)cc1NC(=S)Nc1cc(Cl)cc(Cl)c1 [Example 87, N-{^3-[^3-(3,5-Dichlorophenyl)-thioureido]-4-methoxy-phenyl}-benzamide]
other
  melting point: 194 to 195 °C
[1]; Table 2
  IC50: 102 nM

## COc1ccc(C(=O)Nc2cccc(Cl)c2)cc1NC(=S)Nc1ccc(F)cc1 [Example 108, N-(3-Chlorophenyl)-3-[3-(4-fluorophenyl)-thioureido]-4-methoxy-benzamide]
other
  melting point: 184 to 185 °C
[1]; Table 2
  IC50: 34 nM

## CCc1ccc(C(=O)Nc2ccccc2)cc1Nc1cccc(C(F)(F)F)c1 [Example 41, 4-Ethyl-3-(3-trifluoromethyl-phenylamino)-N-phenyl-benzamide]
other
  melting point: 133 to 134 °C
[1]; [2]
  inhibition at 10 µM: 65%

## COc1ccc(C(=O)Nc2ccccc2)cc1Nc1cc(C)cc(C)c1 [Example 36, 3-(3,5-Dimethyl-phenylamino)-4-methoxy-N-phenyl-benzamide]
other
  melting point: 198 to 199 °C
[1]; Table 2
  IC50: 11 nM

## O=C(Nc1ccccc1)c1ccc(F)c(NC(=S)Nc2cc(Cl)cc(Cl)c2)c1 [Example 96, 3-[3-(3,5-Dichlorophenyl)-thioureido]-4-fluoro-N-phenyl-benzamide]
other
  melting point: 173 to 175 °C
[1]; Table 2
  IC50: 46 nM

## COc1ccc(C(=O)Nc2ccccc2)cc1NS(=O)(=O)c1ccc(C(F)(F)F)cc1 [Example 128, 3-(4-Trifluoromethyl-benzenesulfonylamino)-4-methoxy-N-phenyl-benzamide]
other
  melting point: 197 to 198 °C
[1]; Table 2
  IC50: 54 nM

## COc1ccc(C(=O)Nc2ccccc2)cc1NS(=O)(=O)c1cccc([N+](=O)[O-])c1 [Example 122, 3-(3-Nitro-benzenesulfonylamino)-4-methoxy-N-phenyl-benzamide]
other
  melting point: 208 to 210 °C
[1]; Table 2
  IC50: 187 nM

## COc1ccc(C(=O)Nc2ccc(C)c(C)c2)cc1NC(=S)Nc1cccc(C)c1 [Example 102, N-(3,4-Dimethylphenyl)-4-methoxy-3-(3-m-tolyl-thioureido)-benzamide]
other
  melting point: 155 to 160 °C
[1]; Table 2
  IC50: 170 nM

## COc1ccc(C(=O)Nc2ccccc2)cc1NS(=O)(=O)c1cccs1 [Example 142, 3-(Thiophene-2-sulfonylamino)-4-methoxy-N-phenyl-benzamide]
other
  melting point: 180 to 183 °C
[1]; Table 2
  IC50: 12 nM

## COc1ccc(C(=O)Nc2ccc(F)c(F)c2)cc1Nc1cccc(C(F)(F)F)c1 [Example 48, 4-Methoxy-3-(3-trifluoromethyl-phenylamino)-N-(3,4-difluorophenyl)-benzamide]
other
  melting point: 166 to 169 °C
[1]; Table 2
  IC50: 28 nM

## COc1ccc(C(=O)Nc2ccc(C)c(C)c2)cc1N [Example 6, 3-Amino-4-methoxy-N-(3,4-dimethylphenyl)-benzamide]
other
  melting point: 138 to 142 °C
[1]; Table 1, read-out: h15LO % Inhibition at 10 μM
  inhibition at 10 µM: 79%

## CCS(=O)(=O)Nc1cc(C(=O)Nc2ccccc2)ccc1OC [Example 134, 3-Ethanesulfonylamino-4-methoxy-N-phenyl-benzamide]
other
  melting point: 175 to 177 °C
[1]; Table 2
  IC50: 137 nM

## COc1ccc(C(=O)Nc2ccccc2)cc1Nc1cccc([N+](=O)[O-])c1 [Example 33, 3-(3-Nitro-phenylamino)-4-methoxy-N-phenyl-benzamide]
other
  melting point: 220 to 221 °C
[1]; Table 2
  IC50: 12 nM

## COc1ccc(C(=O)Nc2ccc(Cl)c(Cl)c2)cc1NC(=S)Nc1ccc(S(N)(=O)=O)cc1 [Example 105, N-(3,4-Dichlorophenyl)-4-methoxy-3-[3-(4-sulfamoyl-phenyl)-thioureido]-benzamide]
other
  melting point: 190 to 193 °C
[1]; Table 2
  IC50: 14 nM

## COc1ccc(C(=O)Nc2ccccc2)cc1NC(=S)Nc1cccc(Cl)c1 [Example 61, 3-[3-(3-Chlorophenyl)-thioureido]-4-methoxy-N-phenyl-benzamide]
other
  melting point: 165 to 168 °C
[1]; Table 2
  IC50: 11 nM

## COc1ccc(C(=O)Nc2ccccc2)cc1NS(=O)(=O)c1ccc(Cl)c(Cl)c1 [Example 136, 3-(3,4-Dichloro-benzenesulfonylamino)-4-methoxy-N-phenyl-benzamide]
other
  melting point: 191 to 193 °C
[1]; Table 2
  IC50: 48 nM

## COc1ccc(C(=O)Nc2ccccc2)cc1NS(=O)(=O)c1ccccc1 [Example 120, 3-Benzenesulfonylamino-4-methoxy-N-phenyl-benzamide]
other
  melting point: 190 to 194 °C
[1]; Table 2
  IC50: 40 nM

## COc1ccc(C(=O)Nc2ccccc2)cc1NC(=S)Nc1ccc(OC)c(OC)c1 [Example 72, 3-[3-(3,4-Dimethoxyphenyl)-thioureido]-4-methoxy-N-phenyl-benzamide]
other
  melting point: 170 to 171 °C
[1]; Table 2
  IC50: 56 nM

## COc1ccc(C(=O)Nc2ccc(Cl)cc2)cc1N [Example 2, 3-Amino-4-methoxy-N-(4-chlorophenyl)-benzamide]
other
  melting point: 191 to 192 °C
[1]; Table 1
  IC50: 290 nM

## O=C(Nc1ccccc1)c1cccc(NC(=S)Nc2cc(Cl)cc(Cl)c2)c1 [Example 70, 3-[3-(3,5-Dichlorophenyl)-thioureido]-N-phenyl-benzamide]
other
  melting point: 174 to 177 °C
[1]; Table 2
  IC50: 500 nM

## COc1ccc(C(=O)Nc2ccccc2)cc1OC(=O)Oc1ccccc1 [Example 144, 2-Methoxy-5-phenylcarbamoyl-carbonic acid-phenyl ester phenyl ester]
other
  melting point: 152 to 153 °C
[1]; Table 2
  IC50: 1190 nM

## CCCCS(=O)(=O)Nc1cc(C(=O)Nc2ccccc2)ccc1OC [Example 129, 3-(Butane-1-sulfonylamino)-4-methoxy-N-phenyl-benzamide]
other
  melting point: 182 to 183 °C
[1]; Table 2
  IC50: 79 nM

## O=C(Nc1ccc(F)cc1)c1ccc(OC(F)(F)F)c(NC(=S)Nc2cc(Cl)cc(Cl)c2)c1 [Example 163, 3-[3-(3,5-Dichloro-phenyl)-thioureido]-4-trifluoromethoxy-N-(4-fluoro-phenyl)-benzamide]
other
  melting point: 165 to 166 °C
[1]; Table 2
  IC50: 629 nM

## COc1ccc(C(=O)Nc2ccc(F)c(F)c2)cc1NC(=S)Nc1cc(Cl)cc(Cl)c1 [Example 107, 3-[3-(3,5-Dichlorophenyl)-thioureido]-N-(3,4-difluoro-phenyl)-4-methoxy-benzamide]
other
  melting point: 180 to 183 °C
[1]; Table 2
  IC50: 9 nM

## COc1ccc(C(=O)Nc2ccccc2)cc1NS(=O)(=O)c1ccccc1Cl [Example 127, 3-(2-Chlorobenzenesulfonylamino)-4-methoxy-N-phenyl-benzamide]
other
  melting point: 107 to 109 °C
[1]; Table 2
  IC50: 167 nM

## COc1ccc(C(=O)Nc2ccccc2)cc1NC(=S)Nc1ccc(C(C)(C)C)cc1 [Example 64, 3-[3-(4-tert-Butyl-phenyl)-thioureido]-4-methoxy-N-phenyl-benzamide]
other
  melting point: 198 to 200 °C
[1]; Table 2
  IC50: 41 nM

## COc1ccc(C(=O)Nc2ccccc2)cc1NS(=O)(=O)c1sc(NC(C)=O)nc1C [Example 131, 3-(2-Acetylamino-4-methylthiazole-5-sulfonylamino)-4-methoxy-N-phenyl-benzamide]
other
  melting point: 260 to 261 °C
[1]; Table 2
  IC50: 609 nM

## COc1ccc(NC(=O)c2ccc(O)c(Nc3cc(Cl)cc(Cl)c3)c2)cc1O [Example 59, 3-(3,5-Dichloro-phenylamino)-4-hydroxy-N-(3-hydroxy-4-methoxyphenyl)-benzamide]
other
  melting point: 170 to 171 °C
[1]; Table 2
  IC50: 1460 nM

— patent US6528528B2 (Warner-Lambert Company, priority 1997, dated 2003)
